Source: a melting point compilation (Tetko et al.; mined from patent text by program, amines drawn as free bases though some values may be those of a salt)

melting point | SMILES
96 to 97 °C | c1ccc2c(CCCc3nccc4ccccc34)nccc2c1
222 to 225 °C | CN(C)c1ccc(C2(c3ccc(N(C)C)cc3N(C)C)OC(=O)c3ccc(N(C)C)cc32)cc1 (configuration not stated)
123 to 125 °C | C=CC(=O)NC1CC(C)(C)N(C=CC(=O)OCC)C(C)(C)C1
182 to 184 °C | C[C@@H]1c2ccccc2-c2ccc(F)cc2N1C(=O)c1ccc(O)cc1O
167 to 168 °C | COc1cccc2c1CC(NC(=O)C(C)C)CC2 (configuration not stated)
230 to 233 °C | CN(C)C(=Cc1ccccc1[N+](=O)[O-])C(=O)CN1C(=O)c2ccccc2C1=O
89 to 92 °C | CCc1cc(SCc2cccc3sc(-c4ccc(C(F)(F)F)cc4)nc23)ccc1OCC(=O)O
180 to 182 °C | CCc1nc2sc3ccccc3n2c1CO
58 to 60 °C | O[C@H]1C[C@H]2CN(C3=Nc4cc(Cl)ccc4Sc4ccccc43)CCN2C1
260 to 266 °C | COc1ccc(-c2ccc3c(=O)[nH]c(=O)[nH]c3n2)cc1COC(=O)C(C)(C)C
40 to 80 °C | CCCCC(NC(=O)c1ccccc1)C(=O)CN(C)C(=O)N1CCCC1C(=O)O (configuration not stated)
97 to 99 °C | CC(=O)OCC1OC(OC2C(COC(C)=O)OC(O)(Br)C(OC(C)=O)C2OC(C)=O)C(OC(C)=O)C(OC(C)=O)C1OC(C)=O (configuration not stated)
154 to 156 °C | O=C(N[C@@H](Cc1ccccc1)C(=O)N[C@H](CO)Cc1c[nH]c2ccccc12)OCc1ccccc1
188 °C | COc1ccc(Nc2nc(Nc3ccc(OC)c(Cl)c3)nc(OCC3CCCCC3)n2)cc1Cl
133 °C | O=C(NCCc1ncc(Cl)cc1Cl)c1ccccc1I
75 to 76 °C | COC(=O)/C=C/C=C(\c1ccc(OC)cc1)c1cccnc1
83 to 85 °C | CC1C(=O)CCS1(=O)=O (configuration not stated)
159 to 161 °C | CCC(OC(=O)C1CC1)c1ccc(Cl)c2nc3n(c12)CCCN3c1ccc(Cl)cc1Cl (configuration not stated)
74 to 75 °C | CC(C)(C)C1OC1C(O)c1ccc(C(F)(F)F)cc1 (configuration not stated)
282 to 283 °C | CC(=O)NC1CCn2c1nc1cc(NC(=O)c3cc4cc(F)ccc4n3Cc3cccc(F)c3)cnc12 (configuration not stated)
92 to 94 °C | CN(C(C)(C)C)S(=O)(=O)c1cccnc1SCc1ccccc1
255 °C | CC(C)c1ccc(C(=O)C2=C(O)C(=O)N(c3ccc(O)nn3)C2c2ccc(OC(F)(F)F)cc2)cc1 (configuration not stated)
139 to 142 °C | OC1CCN(c2nnc(Cl)c3ccccc23)CC1

melting point | SMILES
179 to 180 °C | CCOc1cc(CC)ccc1C1CCN(CCCCNC(=O)c2ccc(-c3ccc(S(C)(=O)=O)cc3)cc2)CC1
125 to 126 °C | CCCC[C@H](NC(=O)[C@H](CC(C)C)NC(=O)c1cc(F)cc(F)c1)C(=O)CSCc1ccco1
107 to 109 °C | O=C(c1ccc(F)c(F)c1)N1CCC[C@H](c2nc(-c3cscn3)no2)C1
284 to 286 °C | COc1c(C)c(OC(=O)c2c(C)c(C)c(OCCCOc3ccc(C(N)=O)cc3)c(C)c2OC)c(C)c(C)c1C(N)=O
78 to 84 °C | Cc1ccnn1-c1c(Cl)cc(C(F)(F)F)cc1Cl
119 °C | CSc1ccc(-c2nn(CC=Cc3ccc(Cl)cc3)c(=O)cc2-c2ccc(F)cc2)cc1
168 to 170 °C | CCCc1n[nH]c(=O)c2c(C)ncn12
141 to 143 °C | Cc1csc(C(=O)NN)c1N
165 °C | CCc1nc(Cl)c2c(-c3ccc([N+](=O)[O-])o3)nn(C)c2n1
156 to 158 °C | CN1C(C(=O)Nc2ccccn2)=C(OC(=O)C=Cc2ccccc2)c2ccccc2S1(=O)=O
134 °C | CC(=O)NC1(Cc2ccccc2)CCN(Cc2ccccc2)CC1
154 to 156 °C | COCS(=O)(=O)c1ccc(C=C(C)c2ccc3c(c2)C(C)(C)CCC3(C)C)cc1
112 to 114 °C | O=CN1C2CCC1CC(Oc1ccc(Cl)cn1)C2 (configuration not stated)
240 to 242 °C | O=C(Nc1n[nH]c(=S)s1)N[C@@H](Cc1ccc(F)cc1)C(=O)N1CCN(c2ccccn2)CC1
235 °C | CC1(C)OC(=C(C#N)C#N)C(C#N)=C1c1ccc(Br)cc1
107 to 108 °C | Cc1oc(C=Cc2cccc(C(F)(F)F)c2)nc1CC#N
90 to 100 °C | Clc1ccc(C2=NNCC2)cc1
101 to 103 °C | Clc1cccc(N2CCN(CCCCOc3ccc4cn[nH]c4c3)CC2)c1Cl
133 to 135 °C | Nc1c(Cl)cc(CC(=O)c2ccccc2)c2c1OCCO2
260 to 263 °C | CC(C)(C(=O)O)n1c(=O)[nH]c2cc(Cl)ccc2c1=O
120 to 121 °C | COc1cc2c(cc1OC)C(C)N(C(=O)Cc1cccc([N+](=O)[O-])c1)CC2 (configuration not stated)
138 to 140 °C | Cc1cccc(C(=O)Nc2ccc(N3CCN(Cc4ccccc4)CC3)nc2)c1-c1ccc(C(C)C)cc1
189 to 190 °C | CCCOc1ccc(S(=O)(=O)NCc2ccncc2)cc1-c1nc2cc3nc[nH]c3cc2c(=O)[nH]1

melting point | SMILES
138 to 142 °C | CC1c2cccc3c2N(CC3)c2ccccc2N1C(=O)CCN(C)C (configuration not stated)
238 to 239 °C | O=C1Cc2cc(C(=O)CCl)c(Br)cc2N1
220 to 222 °C | N#Cc1c(N2CCCCC2)cc(-c2ccc3ccc4cccc5ccc2c3c45)c2c1-c1ccccc1C2=O
65 to 67 °C | CCOC(=O)C(F)Cc1ccc(OCCN(C)c2nc3ccccc3o2)cc1 (configuration not stated)
> 250 °C | Cn1c(=O)oc2cc3c(cc21)OCC31C(=O)Nc2ccccc21 (configuration not stated)
175 to 178 °C | COc1cc(Nc2c(C#N)cnc3c2C=C2N=C(NCCN4CCOCC4)N=C2C3)cc(OC)c1OC
72 to 74 °C | CC(C)(C)C1(C(F)n2cncn2)CO1 (configuration not stated)
195 to 196 °C | Cc1cc(F)ccc1-c1nc(NCC(F)(F)F)nc2c1ccc(=O)n2-c1c(F)cccc1F
78 to 80 °C | COC(=O)N1C=C(C=O)CC([C@@H]2CCCN2C)=C1
128 to 130 °C | CNc1ccc(C(=N)NC(=O)OCc2ccccc2)c(F)c1
108 to 110 °C | CCC(Oc1cccc(C)c1C)C1=NCCN1C=Nc1ccccn1 (configuration not stated)
155 to 156 °C | CC1OC(=O)Nc2ccc(-c3cccc(Cl)c3)cc21 (configuration not stated)
130 to 132 °C | Nc1ccccc1C(=O)c1cccc(O)c1
200 to 205 °C | O=C(O)Cc1c(Cl)nc(-c2ccccc2)n1Cc1cc([N+](=O)[O-])ccc1Cl
125 to 126 °C | CCC(CC)O[C@@H]1C=C(C(=O)OC)C[C@H](CC(O)CO)[C@H]1NC(C)=O (some centres not stated)
264 to 267 °C | CCn1c2ccccc2c2cc(/C=C/C(=O)CC(=O)/C=C/c3ccc4c(c3)c3ccccc3n4CC)ccc21
208 to 228 °C | O=C(CNC(=O)C(Cc1ccccc1)P(=O)(O)O)OCc1ccccc1 (configuration not stated)
130 to 131 °C | Cc1nc2c(N)nc3ccccc3c2n1CCOCCCc1ccccc1
127 to 129 °C | CCOc1ccc(C2=NN(C3CCOCC3)C(=O)[C@H]3CC=CC[C@@H]23)cc1OCC (relative stereo)
236 to 239 °C | N#Cc1cn(-c2ccc(Cl)cc2)c(=O)[nH]c1=O
148 to 149 °C | CS(=O)c1ccc(C2=C(c3cccc(F)c3)C(=O)C(C)(C)O2)cc1F (configuration not stated)
191 °C | O=[N+]([O-])c1ccc(-c2cc(C(F)(F)C(F)(F)C(F)(F)F)nc(-c3ccc(C(F)(F)F)cc3)n2)cc1
> 205 °C | O=C(O)c1c[nH]c(Br)c1-c1ccc(Cl)cc1

melting point | SMILES
76 to 77 °C | COc1cc(-c2ccc(C#N)o2)ccc1Br
168 to 171 °C | CONC(=O)C(Cc1ccccc1)N(C)C(=O)C1CCCCC1C(=O)O (configuration not stated)
210 to 217 °C | CC(C)c1cc(S(=O)(=O)c2c(Br)cc(CC(N)C(=O)O)cc2Br)ccc1O (configuration not stated)
98 to 100 °C | Cc1cc(SC(C)C)c(NC(=O)CCCCCSc2nc3ccccc3o2)c(SC(C)C)n1
182 to 184 °C | CC(=O)NC[C@H]1CN(c2ccc(N3CCC4(CCOCCO4)CC3)c(F)c2)C(=O)O1
311 to 313 °C | O=C1Nc2ccc(Cl)nc2Oc2ccccc21
168 to 169 °C | CC(N1C(=O)C(=O)N(c2cccc(C#N)c2)C1=S)C(C)(C)C (configuration not stated)
167 to 169 °C | CCOC(=O)C(=NO)c1c[nH]c2c(CC)cccc12
157 to 158 °C | COCCOc1ccc(/C=C/C(=O)O)c(Oc2ncc(Br)cc2C)c1
112 to 114 °C | CCCCC(=NOCc1ccc(OCc2nc(-c3ccccc3)oc2C)cc1)C(=O)O
181 to 182 °C | CC(C)c1nc(COCc2ccccc2)n(CC(C)(C)O)c1Sc1cc(Cl)cc(Cl)c1
110 to 114 °C | CC(C)[C@H](NC(=O)N(C)Cc1nc2ccccc2[nH]1)C(=O)N[C@@H](Cc1ccccc1)[C@@H](O)C[C@H](Cc1ccccc1)NC(=O)OCc1cccnc1
222 to 223 °C | CC(C)(C)OC(=O)c1nc(-c2ccccc2)[nH]c1C1CCCCC1
120 to 121 °C | O=C1CCCN1c1cccc(CO)c1
92 to 94 °C | COCCOC(=O)c1cc(-n2c(OC)nc(C(F)(F)C(F)(F)F)cc2=O)c(F)cc1Cl
193 to 194 °C | COc1cc(CCN2CCC(NC(=O)c3ccccc3)CC2)cc(OC)c1OC
75 to 76 °C | CCOC(=O)/C=C/c1cc(OC)c(O)c2c(CC)cccc12
68 to 69 °C | COc1cc(COc2ccccc2C=O)cc(OC)c1
194 to 196 °C | COc1cc(OC)c(-c2cc3ccccc3s2)cc1C=CC(=O)c1cc(OC)c(OC)c(OC)c1
185 to 187 °C | CCOCc1nc2c(N)nc(C)c(C)c2n1CCNS(C)(=O)=O
217 to 220 °C | CC1(C)C(=NO)C(c2ccccc2)=C1c1ccc(S(C)(=O)=O)cc1

SMILES | melting point
O=[N+]([O-])N=C1NCCN1Cc1ccc(OCC(F)(F)F)nc1 | 109 to 112 °C
Cc1nc(CO)c2n1-c1ccc(Cl)cc1C(c1ccccc1Cl)=NC2 | 215 to 217 °C
CC(=O)OC1C(N2CCCCC2)CC2C3CCC4CCC(N5CCCCC5)CC4(C)C3CCC21C (configuration not stated) | 156 to 161 °C
COc1ccc(COC(=O)c2ncn3c2[C@@H]2CCCN2C(=O)c2c(Cl)cccc2-3)cc1 | 185 to 186 °C
CCCC(C)(N)Cc1c[nH]c2ccccc12 (configuration not stated) | 73.5 to 74.5 °C
O=c1ccc2c([nH]1)CCN(Cc1ccccc1)C2 | 210 to 212 °C
Cc1cc(C(=O)NN)ccc1-c1ccc(C(=O)C2CN(C)CCC23COc2cc4c(cc23)NCC4)cc1 (configuration not stated) | 130 to 135 °C
